Test results reported in US20220145264A1, “CULTURE MEDIUM FOR MAMMALIAN EXPANDED POTENTIAL STEM CELLS, COMPOSITION, AND METHODS THEREOF” (THE UNIVERSITY OF HONG KONG, priority 2019, published 2022).

Experiments:
[1] = test system: NANOS3-Tdtomato reporter EPSCs; experiment: Differentiation to PGCLCs from NANOS3-Tdtomato reporter EPSCs (FACS); type: cell-based, human; details: 5.0 ng/ml supplemented in hEPSCM
Protocol: For human PGCLCs, the PGC differentiation potential of two hEPSC lines are tested with the sequential induction method. Human pre-mesoderm (pre-ME) was first induced in pre-ME media (Advanced RPMI 1640 Medium, 1% B27 supplement, 1×NEAA and 1× glutamine penicillin-streptomycin supplemented with 100 ng/ml Activin A (SCI), 3 μM CHIR99021 and 10 μM of ROCKi Y-27632) for 12 hours. Pre-ME were trypsinized into single cells and seeded into Corning Costar Ultra-Low attachment multi well 96-well plates (Corning, Cat. No. 7007) 4,000-5,000 cells per well in the […] PGCLC medium which was used for porcine PGCLC induction. To improve the cell aggregation, in all PGCLC induction experiments, 0.25% (v/v) poly-vinyl alcohol (Sigma, Cat. No. 341584) are added in the basal medium.

[2] = test system: Dox dependent porcine iPSCs; experiment: Screening for the porcine EPSC culture conditions; type: cell-based; details: 1.0 μM, irrespective of whether Dox was present
Protocol: Dox dependent porcine iPSCs were dissociated in 0.25% trypsin/EDTA solution (Gibco, Cat. No. 25500-054) and seeded in 24-well STO feeder plates at a density of 1×10^4 cells per well. The cells were cultured in M15 supplemented with Dox (Sigma, Cat. No. D9891), Vitamin C (Sigma, Cat. No. 49752-100G) and 10 ng/ml bFGF (SCI) for two days before the culture media was switched to medium supplemented with indicated small molecules and cytokines (Supplementary Table 1). M15 and N2B27 media: see above. AlbumMax media: DMEM/F12 (Gibco, Cat. No. 21331-020), 20% AlbumMax II (Gibco, Cat. No. 11021-037), […] Human Insulin (Sigma, Cat. No. 91077C), 2×B27 Supplement, […] IGFII (R&D, Cat. No. 292-G2-250), 1×Glutamine Penicillin-Streptomycin (Thermo Fisher Scientific, Cat. No. 11140-050), 1×NEAA (Thermo Fisher Scientific, Cat. No. 10378-016) and 0.1 mM 2mercaptoethanol (Sigma, Cat. No. M6250). 20% KSR media: DMEM/F-12 (Gibco, Cat. No. 21331-020), 20% KnockOut Serum Replacement (KSR) (Gibco, Cat. No. 10828-028), 1× glutamine penicillin-streptomycin (Thermo Fisher Scientific, Cat. No. 11140-050), 1×NEAA (Thermo Fisher Scientific, Cat. No. 10378-016) and 0.1 mM 2-mercaptoethanol (Sigma, Cat. No. M6250). […]

Compound	NANOS3-tdTomato+ PGCLCs generated [1]	survival of porcine iPSCs / porcine cells in the screens [2]	survival of porcine iPSCs / porcine cells in the screens ([2]; listed as PD-0325901)
ACTIVIN A: Human Recombinant ACTIVIN A cytokine	more and substantially increased		
O=C(NOC[C@H](O)CO)c1ccc(F)c(F)c1Nc1ccc(I)cc1F [PD0325901]		deleterious to porcine cells	rapidly lost
